Measured values reported in patent EP1856102B1, “MEDICAMENTS FOR ALZHEIMER” (Tseti, Ioulia, priority 2005, dated 2006).
Marks after values point to notes of the source that are not given here.

How the values were obtained:
female Fischer-344 rats = details: s.c. once daily for 4 days, dose 84 µM/kg (Indomethacin, 1, 2, 3) or 1350 µM/kg (Naproxen, 4, 5); for Perforating ulcers (%): % of animals which developed perforating ulcers; for Mortality (%): (dead/total) x 100, recorded 24 h after last treatment
Experimental: Equimolar doses of the parent NSAIDs and the respective derivatives were administered s.c. once daily for 4 days to female Fischer-344 rats (160-180g). The used dose was ca LD50 of the parent NSAID. The incidence of perforating gastrointestinal ulcers, body weight change, melena and mortality were recorded 24 h after the last treatment. […] Table 3: Gastrointestinal toxicity of indomethacin, naproxen and some novel derivatives in rats

[1] = system: tyloxapol-induced hyperlipidemia; test: Tyloxapol-induced hyperlipidemia in rats; type: in vivo; details: 56µmol/kg i.p. once, 24 h later, tyloxapol 200 mg/kg i.p.; for % decrease LDL: plasma LDL-cholesterol; for % decrease TC: plasma total cholesterol; for % decrease TG: plasma triglyceride
Experimental: The hypocholesterolemic and hypolipidemic activity of the test compounds was assessed in vivo by the inhibition of tyloxapol-induced hyperlipidemia (200 mg/kg i.p.) in rats. The novel NSAID derivatives were administered (56µmol/kg, i.p., once) to hypercholesterolemic rats and 24 h later the plasma total cholesterol (TC), LDL and triglyceride (TG) concentrations were determined in blood taken from the aorta. […] Table 6: Effect of the test compounds on plasma total cholesterol, triglyceride and LDL-cholesterol levels of hyperlipidemic rats

[2] = system: lipid peroxidation of hepatic microsomal fraction; test: In vitro lipid peroxidation (TBA reactive material); type: biochemical, Fischer-344 rats; details: at 45 min, 37°C; heat inactivated rat hepatic microsomal fraction, FeSO4/ascorbic acid
Experimental: Hepatic microsomal fraction from untreated Fischer-344 rats was prepared. The incubation mixture contained heat inactivated (90°C for 90 sec) hepatic microsomal fraction, corresponding to 2.5 mg protein/ml (fmal concentration) or 4 mmol/L fatty acid residues, ascorbic acid (0.2 mmol/L) in Tris-HCl/KCl buffer (50 mmol/L / 150mmol/L, pH 7.4) and various concentrations (1-0.05 mmol/L) of the test compounds dissolved in dimethylsulfoxide (DMSO). The reaction was started by the addition of a freshly prepared FeSO4 solution (10 µM/L) and the mixture was incubated at 37°C for 45 min. Aliquots (0.3mL) from the incubation mixture were taken at various time intervals. Lipid peroxidation was assessed spectrophotometrically (535 against 600 nm) by the determination of the TBA reactive material. Under the above experimental conditions, all compounds, as well as DMSO, were tested and found not to interfere with the assay. Each experiment was performed at least in triplicate.

[3] = Interaction with the stable free radical DPPH; details: DPPH 0.2 mmol/L in ethanol, room temperature, 45 min
Experimental: The test compounds were dissolved in absolute ethanol (analytical grade, iron content was less than 10^-3 (w/v), added to an equal volume of an ethanolic solution of DPPH (final concentration 0.2 mmol/L) at various concentrations (0.1 and 0.2 mmol/L) and kept at room temperature. Absorbance (517 nm) was recorded at 45 min. Each experiment was performed at least in triplicate. Table 5: % Interaction of the test compounds with the stable free radical DPPH

[4] = system: carrageenan-induced edema of the rat hind paw; test: Carrageenan-induced edema of the rat hind paw; type: in vivo, female Fischer-344 rats; details: 0.3mmol/kg i.p. immediately after carrageenan; paws weighed 3.5 h later; edema suppression in comparison to controls
Experimental: Edema was induced via i.d. injection of carrageenan (0.1 ml of a 2% w/v aqueous solution) into the right hind paw of female Fischer-344 rats (200-220g) (the left paw serving as control). The compounds under study were dissolved or suspended in water containing a few drops of Tween 80 and were administered i.p. (0.3mmol/kg) immediately after the carrageenan injection. The mice were euthanazed 3.5 h later, both hind paws were severed above the ankle joint and weighted separately. For each animal the swelling caused by the phlogistic was given as percentage of weight increase of right hind paw in comparison to the uninjected left hind paw, and from that, the percentage of edema suppression in comparison to controls was calculated. The parent anti-inflammatory acids (at the same molar concentrations) were used as reference compounds, in addition to the absolute control. […] Table 1: Effect of the test compounds on carrageenan-induced edema of the rat hind paw

[5] = system: FCA-induced experimental arthritis in rats; test: Adjuvant-induced disease (FCA-induced experimental arthritis); type: in vivo, female Fischer-344 rats; details: 0.3-0.6 mmol/kg i.p. once daily for 14 days; in comparison to non treated AID rats
Experimental: Adjuvant-induced disease (AID) was induced via i.d. injection of Freund's complete adjuvant (0.1 ml of FCA) in the foot pad of the right hind paw of female Fischer-344 rats. The compounds under study were dissolved or suspended in water containing a few drops of Tween 80 and were administered i.p. (0.3-0.6 mmol/kg) once daily for 14 days. In order to observe the progress of local inflammatory reaction, the change in swelling of paw with adjuvant treatment was evaluated by allocation of points (inflammatory score) on an arbitrary scale, while for the quantification of arthritis the arthritic score was recorded.
Table 2: Effect of the test compounds on FCA-induced experimental arthritis in rats

SMILES	Perforating ulcers (%) (female Fischer-344 rats)	Mortality (%) (female Fischer-344 rats)	Body weight change (female Fischer-344 rats)	% decrease LDL [1]	% decrease TC [1]	% decrease TG [1]	IC50 [2]	% Interaction with the stable free radical DPPH ([3]; compound 0.2mM)	% Interaction with the stable free radical DPPH ([3]; compound 0.1mm)	% Edema inhibition [4]	% Inhibition of experimental arthritis [5]
COc1ccc2c(c1)c(CC(=O)N1CCCC1C(=O)Oc1ccc(C)cc1OC)c(C)n2C(=O)c1ccc(Cl)cc1 (stereo not drawn) [Compound 3, 1-{2-[1-(4-Chloro-benzoyl)-5-methoxy-2-methyl-1-H-indol-3-yl]-acetyl}-pyrrolidine-2-carboxylic acid-2-methoxy-4-methyl-phenyl ester]	0%	0%	+11.1 g/100 body weight								
CCOC(=O)C(CS)NC(=O)C1CCCCN1C(=O)C(C)c1ccc2cc(OC)ccc2c1 (stereo not drawn) [Compound 9]				52* %	40%	21.3%	122 µM	76%	46%		
CCOC(=O)C(CS)NC(=O)C1CCCN1C(=O)C(C)c1ccc2cc(OC)ccc2c1 (stereo not drawn) [Compound 5]	0%	0%	+1.5 g/100 body weight	55* %	58** %	68.7** %	320 µM	85%	65%	30%	100%
COc1ccc2c(c1)c(CC(=O)O)c(C)n2C(=O)c1ccc(Cl)cc1 [Indomethacin, reference compound]		50%								47.8%	
COc1ccc2cc(C(C)C(=O)N3CCCC3C(=O)Oc3ccc(C)cc3OC)ccc2c1 (stereo not drawn) [Compound 6, 1-[2-(6-methoxy-naphthalen-2-yl)-propionyl]-pyrrolidine-2-carboxylic acid 2-methoxy-4-methyl phenyl ester]										20%	
CCOC(=O)C(CS)NC(=O)C1CC(O)CN1C(=O)C(C)c1ccc2cc(OC)ccc2c1 (stereo not drawn) [Compound 8]				56.5* %	35.5%	25%	500 µM	75%	55%		
COc1ccc2cc(C(C)C(=O)N3CC(O)CC3C(=O)NCCS)ccc2c1 (stereo not drawn) [Compound 7, 4-Hydroxy-1-[2-(6-methoxy-naphthalen-2-yl)-propionyl]-pyrrolidine-2-carboxylic acid-(2-mercapto-ethyl) amide]				53.5 * %	45* %	51%		56%	34%	31%	
CCOC(=O)C(CS)NC(=O)C1CCCN1C(=O)Cc1c(C)n(C(=O)c2ccc(Cl)cc2)c2ccc(OC)cc12 (stereo not drawn) [Compound 2, 2-[(1-{2-[1-(4-Chloro-benzoyl)-5-methoxy-2-methyl-1-H-indol-3-yl]-acetyl}-pyrrolidine-2-carbonyl)-amino]-3-mercapto-propionic acid ethyl ester]	0%	0%	+3.9 g/100 body weight				390 µM	70%	44%	20%	75%
COc1ccc2cc([C@H](C)C(=O)O)ccc2c1 [Naproxen, reference compound]		50%								45%	
COc1ccc2c(c1)c(CC(=O)N1CCCC1C(=O)NCCS)c(C)n2C(=O)c1ccc(Cl)cc1 (stereo not drawn) [Compound 1, 1-{2-[1-(4-Chloro-benzoyl)-5-methoxy-2-methyl-1-H-indol-3-yl]-acetyl}-pyrrolydine-2-carboxylic acid (2-mercapto-ethyl) amide]	0%	0%	+1.3 g/100 body weight							23%	50%
COc1ccc2cc(C(C)C(=O)N3CCCC3C(=O)NCCS)ccc2c1 (stereo not drawn) [Compound 4, 1-[2-(6-methoxy-naphthalen-2-yl)-propionyl]-pyrrolidine-2-carboxylic acid-(2-mercapto-ethyl) amide]								78%	57%	30%	30%
